# The source made the active and inactive calls.
# What was measured:
# Leucine aminopeptidase = molecular target: T1, Leucine aminopeptidase (Plasmodium falciparum 3D7, UniProt Q8IL11); assay: P. falciparum M17LAP inhibitors, primary screen, biochemical, fluorogenic H-Leu-NHMec substrate, 1536-well (AID 1619); type: functional
# T1 sequence (Q8IL11 whole entry): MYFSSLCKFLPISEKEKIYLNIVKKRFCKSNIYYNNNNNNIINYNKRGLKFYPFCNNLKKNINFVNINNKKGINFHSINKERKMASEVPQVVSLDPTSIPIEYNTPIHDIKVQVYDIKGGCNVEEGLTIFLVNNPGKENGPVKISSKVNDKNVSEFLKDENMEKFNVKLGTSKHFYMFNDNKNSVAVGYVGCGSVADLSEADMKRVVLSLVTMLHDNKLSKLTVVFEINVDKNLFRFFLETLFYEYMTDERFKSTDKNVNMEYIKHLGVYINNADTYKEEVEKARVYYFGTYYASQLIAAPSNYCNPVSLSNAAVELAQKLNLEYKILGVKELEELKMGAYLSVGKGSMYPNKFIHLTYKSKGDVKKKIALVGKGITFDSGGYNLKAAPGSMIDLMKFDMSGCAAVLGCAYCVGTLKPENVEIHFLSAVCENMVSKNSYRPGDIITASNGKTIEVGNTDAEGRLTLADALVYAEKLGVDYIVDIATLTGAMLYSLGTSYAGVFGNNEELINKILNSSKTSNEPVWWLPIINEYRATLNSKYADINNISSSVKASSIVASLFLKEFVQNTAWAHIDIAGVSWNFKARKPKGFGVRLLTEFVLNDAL
# Large T antigen = Large T antigen (Simian virus 40, UniProt P03070); type: functional, Betapolyomavirus macacae;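 also: Confirmatory-stage PubChem screen for compounds that inhibit SV40 T antigen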
# [1] = growth suppression of PTEN-null colon cells, dose response, cell-based, HCT116 PTEN knockout (AID 1047); type: functional;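 also: HCT116 colon tumor cells with PTEN knocked out; cells exposed to compound for 60 hours before readout; potency for loss of cell viability measured by luminescence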
# [2] = growth suppression of beta-catenin-knockout colon cells, dose response, cell-based, HCT116, human colon tumor (AID 1045); type: functional;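 also: HCT116 colon tumor cells with beta catenin knocked out; cells exposed to compound for 60 hours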
# [3] = molecular target: T2, Heat shock factor protein 1 (Mus musculus, UniProt P38532); assay: HSF1 potentiators in luciferase reporter cells, confirmation, cell-based, NIH3T3, luminescence, dose retest (AID 435004); type: functional;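 also: stress induced by proteasome inhibitor MG132 added 30 min after compound; luciferase reporter driven by HSF1 response element in NIH3T3 cells; actives raise luminescence as potentiators of the MG132 stress response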
# T2 sequence (P38532 whole entry): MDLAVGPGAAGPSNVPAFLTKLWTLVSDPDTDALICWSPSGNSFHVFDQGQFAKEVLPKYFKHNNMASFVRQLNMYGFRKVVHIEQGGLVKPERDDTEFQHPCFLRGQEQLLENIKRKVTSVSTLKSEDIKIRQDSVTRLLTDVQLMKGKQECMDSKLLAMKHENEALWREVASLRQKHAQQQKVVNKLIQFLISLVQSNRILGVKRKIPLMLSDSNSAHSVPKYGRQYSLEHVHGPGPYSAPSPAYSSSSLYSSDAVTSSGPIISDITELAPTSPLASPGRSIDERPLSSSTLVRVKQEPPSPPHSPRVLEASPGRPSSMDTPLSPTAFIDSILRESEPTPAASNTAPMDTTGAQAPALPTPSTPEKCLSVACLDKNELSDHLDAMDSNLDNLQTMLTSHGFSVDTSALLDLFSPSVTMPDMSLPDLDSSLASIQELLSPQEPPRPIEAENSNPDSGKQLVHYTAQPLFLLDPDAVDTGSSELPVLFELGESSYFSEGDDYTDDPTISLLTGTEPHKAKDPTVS
# [4] = microbe, parasite or virus in culture; type: functional; conditions: Mycobacterium tuberculosis
# cells = type: functional
# [5] = molecular target: T3, Rac GTPase-activating protein 1 (Homo sapiens, UniProt Q9H0H5); assay: MgcRacGAP GTPase-activating activity inhibitors, confirmation, biochemical, ADP Hunter fluorescence, primary and confirmatory (AID 624330); type: functional
# T3 sequence (Q9H0H5 whole entry): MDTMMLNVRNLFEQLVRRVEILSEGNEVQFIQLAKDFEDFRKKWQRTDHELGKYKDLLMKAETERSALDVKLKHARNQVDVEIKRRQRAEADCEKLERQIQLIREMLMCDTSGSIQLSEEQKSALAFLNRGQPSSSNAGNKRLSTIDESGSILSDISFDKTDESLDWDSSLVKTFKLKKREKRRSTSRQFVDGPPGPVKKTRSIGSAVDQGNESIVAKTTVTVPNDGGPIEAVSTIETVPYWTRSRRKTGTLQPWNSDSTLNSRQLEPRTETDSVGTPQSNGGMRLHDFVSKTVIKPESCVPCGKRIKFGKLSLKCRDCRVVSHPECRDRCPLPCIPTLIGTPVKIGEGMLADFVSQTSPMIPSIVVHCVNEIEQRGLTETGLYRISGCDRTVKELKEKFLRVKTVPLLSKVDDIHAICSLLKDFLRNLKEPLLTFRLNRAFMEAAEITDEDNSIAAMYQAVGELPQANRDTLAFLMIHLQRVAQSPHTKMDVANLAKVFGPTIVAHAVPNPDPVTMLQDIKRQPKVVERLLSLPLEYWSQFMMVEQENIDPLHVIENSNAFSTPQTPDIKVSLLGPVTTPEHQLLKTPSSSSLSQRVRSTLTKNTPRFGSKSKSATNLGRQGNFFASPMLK
# Cytochrome P450 2D6 = Cytochrome P450 2D6 (Homo sapiens, UniProt P10635);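 also: CYP2D6 member of a cytochrome P450 panel assay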
# [6] = cytotoxicity toward NIH3T3 fibroblasts, dose response, counter-screen, cell-based, ATP luminescence, mouse fibroblasts (AID 2010); type: functional;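 also: cells exposed to compound for about 90 hours before reading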
# [7] = test system: Streptococcus sp. 'group A'; assay: growth inhibition of control SK(-) GAS strain, dose response, counter-screen for streptokinase expression inhibitor project, luminescence, kanamycin, BacTiterGlo, confirmation (AID 1900); type: functional, organism-based
# Streptococcus = assay: Group A Streptococcus viability loss, dose response, counter-screen for streptokinase expression inhibitor project, luminescence, BacTiterGlo (AID 1915); type: functional, organism-based;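 also: potency for reduction of bacterial viability or growth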
# [8] = inhibitors of intracellular T. cruzi replication, confirmation, NIH3T3 host cells, beta-gal luminescence (AID 2044); type: functional, cell-based;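 also: intracellular parasites grown in NIH/3T3 mouse fibroblasts as host cells; luminescent beta-galactosidase reporter signal from transgenic T. cruzi replicating inside host cells; inhibitors lower the luminescence signal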
# Streptokinase A = molecular target: T4, Streptokinase A (Streptococcus pyogenes serotype M1, UniProt P10520); assay: S. pyogenes streptokinase expression inhibitors, potency, dose response, plasminogen activation absorbance, OD405 (AID 1914); type: functional, Streptococcus pyogenes M1 GAS;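 also: secreted streptokinase activity via plasminogen activation per viability signal from cell pellet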
# T4 sequence (P10520 whole entry): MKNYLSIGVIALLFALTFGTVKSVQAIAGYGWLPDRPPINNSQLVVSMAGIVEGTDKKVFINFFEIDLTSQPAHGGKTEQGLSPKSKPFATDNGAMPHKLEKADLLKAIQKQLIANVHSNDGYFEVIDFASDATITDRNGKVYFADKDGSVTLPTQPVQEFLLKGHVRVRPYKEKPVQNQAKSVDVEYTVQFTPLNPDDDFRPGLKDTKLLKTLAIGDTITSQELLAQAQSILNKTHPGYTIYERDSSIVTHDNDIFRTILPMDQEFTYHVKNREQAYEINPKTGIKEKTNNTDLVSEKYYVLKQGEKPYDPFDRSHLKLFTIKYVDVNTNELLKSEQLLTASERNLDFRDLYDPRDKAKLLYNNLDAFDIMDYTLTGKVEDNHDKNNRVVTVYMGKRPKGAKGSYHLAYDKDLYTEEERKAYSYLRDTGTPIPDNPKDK
# Sequence of Large T antigen (P03070 whole entry): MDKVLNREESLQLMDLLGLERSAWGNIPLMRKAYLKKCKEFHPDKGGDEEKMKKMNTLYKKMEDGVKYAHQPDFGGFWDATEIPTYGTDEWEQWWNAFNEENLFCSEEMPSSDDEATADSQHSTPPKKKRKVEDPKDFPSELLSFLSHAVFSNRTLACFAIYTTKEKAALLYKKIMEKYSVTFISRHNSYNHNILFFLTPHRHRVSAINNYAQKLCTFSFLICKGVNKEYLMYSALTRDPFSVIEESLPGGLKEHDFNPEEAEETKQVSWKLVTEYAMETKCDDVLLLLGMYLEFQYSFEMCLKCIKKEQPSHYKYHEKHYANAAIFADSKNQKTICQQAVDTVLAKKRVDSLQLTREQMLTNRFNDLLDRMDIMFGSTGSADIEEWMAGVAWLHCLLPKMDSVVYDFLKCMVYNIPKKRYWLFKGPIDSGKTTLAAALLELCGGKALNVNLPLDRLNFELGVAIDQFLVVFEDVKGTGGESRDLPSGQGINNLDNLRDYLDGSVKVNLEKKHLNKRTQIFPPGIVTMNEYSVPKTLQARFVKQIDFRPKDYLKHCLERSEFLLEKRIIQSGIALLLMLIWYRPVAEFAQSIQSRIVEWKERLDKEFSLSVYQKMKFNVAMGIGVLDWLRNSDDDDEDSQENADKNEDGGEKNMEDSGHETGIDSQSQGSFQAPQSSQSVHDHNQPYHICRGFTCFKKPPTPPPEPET
# Sequence of Cytochrome P450 2D6 (P10635 whole entry): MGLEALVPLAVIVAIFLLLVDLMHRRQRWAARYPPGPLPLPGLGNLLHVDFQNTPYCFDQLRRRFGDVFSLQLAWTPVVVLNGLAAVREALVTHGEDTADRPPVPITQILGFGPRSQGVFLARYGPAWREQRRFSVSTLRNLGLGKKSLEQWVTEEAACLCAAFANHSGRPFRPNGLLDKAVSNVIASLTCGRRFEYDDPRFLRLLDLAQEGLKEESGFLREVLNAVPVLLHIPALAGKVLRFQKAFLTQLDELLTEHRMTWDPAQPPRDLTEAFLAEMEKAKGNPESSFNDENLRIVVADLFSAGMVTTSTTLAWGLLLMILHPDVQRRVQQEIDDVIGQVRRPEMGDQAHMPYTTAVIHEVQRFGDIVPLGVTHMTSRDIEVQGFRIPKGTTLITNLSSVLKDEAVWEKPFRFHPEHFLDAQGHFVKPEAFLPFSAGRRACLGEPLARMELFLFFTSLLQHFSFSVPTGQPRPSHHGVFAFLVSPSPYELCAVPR
smiles,measurement,setting,value
CCOC(=O)c1cnn2cc(-c3[nH]ncc3[N+](=O)[O-])cnc12,IC50,Leucine aminopeptidase,5.26 µM (active)
COc1ccc(NC2CCCN(C(=O)c3ccc(OC)o3)C2)cc1 (configuration not stated),IC50,Large T antigen,16.7 µM (active)
CCCCn1c(=N)n(CC(O)COc2ccc(C)cc2)c2ccccc21 (configuration not stated),EC50,[1],6.43 µM (active)
same,EC50,[2],6.36 µM (active)
Cc1ccc(P(=O)(CSC(=N)N)c2ccc(C)cc2)cc1,EC50,[1],30.7 µM (active)
same,EC50,[2],25.4 µM (active)
Cc1ccc(S(=O)(=O)N2CCOCC2)cc1NC(=O)CN1CCN(c2ccc(O)cc2)CC1,IC50,Large T antigen,5.03 µM (active)
CN(C)c1ccc(NC(=O)CN2CCC(C(=O)c3ccc(F)cc3)CC2)cc1,IC50,Large T antigen,10.4 µM (active)
Cc1nc(CN2CCN(Cc3nc(C(c4ccccc4)c4ccccc4)no3)CC2)cs1,EC50,[3],> 260 µM (inactive)
Cc1cccc(N(CC(=O)Nc2ccccc2-c2ccccc2)S(=O)(=O)c2ccccc2)c1C,EC50,[3],> 260 µM (inactive)
CCCCn1nnnc1SCC(=O)Nc1ccc(N(C)C)cc1,IC50,Large T antigen,11.2 µM (active)
COc1cc2c3c(c1OC)C1(C=CC(=O)C=C1)CC3N(C(=O)c1ccccc1)CC2 (configuration not stated),EC50,[3],> 260 µM (inactive)
CCOC(=O)CN1C=C(c2ccc3ccccc3n2)C(C[N+](=O)[O-])c2ccccc21 (configuration not stated),EC50,[3],70.3 µM (active)
CN1C(=O)C(O)(CC(=O)c2ccc(F)cc2)c2cc(Br)ccc21 (configuration not stated),EC50,[1],19.1 µM (active)
same,EC50,[2],15.7 µM (active)
COc1ccccc1C(=O)NNC(=O)C(=O)NCc1ccccc1,CC50,[4],> 40 µM (active)
CS(=O)(=O)Cc1nc2ccccc2oc1=O,IC50,cells,2.93 µM (active)
same,IC50,[5],73.6 µM (active)
COc1cccc(/C=N/NC(=O)CC2C(=O)NN=C2C)c1OC (configuration not stated),IC50,Leucine aminopeptidase,23.5 µM (active)
CN(C(=O)c1ccccc1C(=O)OCC(=O)NCc1cccs1)C1CCCCC1,IC50,Large T antigen,> 100 µM (active)
Cc1cc(N/N=C2/CCCc3ccccc32)nc2ccccc12,CC50,[4],> 40 µM (active)
COc1cccc(/C=N/NC(=S)NC2CC3CC2C2C=CCC32)c1O (configuration not stated),EC50,[3],> 260 µM (inactive)
O=C(N/N=C/c1ccc(Br)s1)c1cccs1,CC50,[4],33.3 µM (active)
COc1ccc(NC(=O)Nc2ccc3oc(C)nc3c2)cc1,IC50,Leucine aminopeptidase,14.8 µM (active)
CCOc1cc(/C=N/n2cnnc2)ccc1O,IC50,Large T antigen,13.6 µM (active)
same,IC50,[5],34.3 µM (active)
O=C(OCc1cccc(F)c1)c1ccc2c(=O)n3c(nc2c1)CCC3,IC50,cells,12.1 µM (active)
O=C(CNC(=O)c1ccco1)OCc1ccc(C(=O)Oc2ccccc2)cc1,IC50,cells,11.7 µM (active)
same,CC50,[4],> 40 µM (active)
Cc1cc(C)cc(OCC(O)CN2C(=O)NC(C)(C)C2=O)c1 (configuration not stated),EC50,[3],> 260 µM (inactive)
S=C1NC(c2ccccc2)N2C(=S)NC(c3ccccc3)N12 (configuration not stated),IC50,Leucine aminopeptidase,20.9 µM (active)
CCOC(=O)N1CCC(NC(=O)c2cccs2)CC1,EC50,[3],> 260 µM (inactive)
O=C(N/N=C/c1ccc(F)c(F)c1)c1cc2c(s1)-c1ccccc1CC2,EC50,[1],22.4 µM (active)
same,EC50,[2],21.2 µM (active)
CCOc1ccc(C(=O)N2CCN(S(=O)(=O)c3cccs3)CC2)c(OCC)c1,EC50,[3],> 260 µM (inactive)
O=C1CC(SC(=Nc2ccccc2)Nc2ccccc2)C(=O)N1c1cccc(Cl)c1 (configuration not stated),EC50,[1],24.5 µM (active)
same,EC50,[2],33.2 µM (active)
same,AC50,Cytochrome P450 2D6,10 µM (inconclusive)
O=C(N/N=C/c1ccc([N+](=O)[O-])o1)c1cc(-c2cccc(Br)c2)nc2ccccc12,EC50,[1],7.92 µM (active)
same,EC50,[6],> 60 µM (not active)
same,EC50,[7],0.398 µM (active)
same,EC50,Streptococcus,0.796 µM (active)
same,EC50,[2],7.86 µM (active)
same,EC50,[8],0.128 µM (active)
Fc1ccc(CN2CCN(c3ncnc4scc(-c5ccccc5)c34)CC2)cc1,EC50,[3],> 260 µM (inactive)
Cc1nn(-c2ccccc2)c(C)c1/C=N/NC(=O)c1cc(-c2cccc3ccccc23)[nH]n1,EC50,Streptokinase A,> 150 µM (not active)
same,EC50,[7],18.6 µM (active)
same,EC50,Streptococcus,89.4 µM (active)
same,CC50,[4],30.5 µM (active)
COc1ccc(NC(=O)CSc2nnc(NC(=O)c3ccccc3C(=O)O)s2)cc1,IC50,Leucine aminopeptidase,6.27 µM (active)
N/C(S)=N/c1c(Cl)cccc1Cl,IC50,Large T antigen,77.4 µM (active)
Cc1ccc2c[nH]nc2c1N,IC50,Large T antigen,15.4 µM (active)
